Test results as given in ChEMBL document CHEMBL4390652, “Design, biological evaluation and X-ray crystallography of nanomolar multifunctional ligands targeting simultaneously acetylcholinesterase and glycogen synthase kinase-3” (Eur J Med Chem, 2019).

Assays:
[1] = target: Mitogen-activated protein kinase kinase kinase 6 (Homo sapiens) (UniProt O95382); assay: Binding affinity to wild-type human partial length ASK2 (M278 to R972 residues) expressed in mammalian expression system assessed as residual binding level at 10 uM by Kinomescan method relative to control
[2] = target: Tyrosine-protein kinase Blk (Homo sapiens) (UniProt P51451); assay: Binding affinity to wild-type human partial length BLK (G211 to L503 residues) expressed in bacterial expression system assessed as residual binding level at 10 uM by Kinomescan method relative to control
[3] = target: Citron Rho-interacting kinase (Homo sapiens) (UniProt O14578); assay: Binding affinity to wild-type human partial length CIT (M68 to E432 residues) expressed in bacterial expression system assessed as residual binding level at 10 uM by Kinomescan method relative to control
[4] = target: Casein kinase I isoform gamma-3 (Homo sapiens) (UniProt Q9Y6M4); assay: Binding affinity to wild-type human full length CSNK1G3 (M1 to K447 residues) expressed in bacterial expression system assessed as residual binding level at 10 uM by Kinomescan method relative to control
[5] = tested on: Epidermal growth factor receptor (Homo sapiens), P00533 [G719C]; assay: Binding affinity to human partial length EGFR G719C mutant (R669 to V1011 residues) expressed in bacterial expression system assessed as residual binding level at 10 uM by Kinomescan method relative to control
[6] = target: Ephrin type-A receptor 1 (Homo sapiens) (UniProt P21709); assay: Binding affinity to wild-type human partial length EPHA1 (V588 to I913 residues) expressed in bacterial expression system assessed as residual binding level at 10 uM by Kinomescan method relative to control
[7] = target: Tyrosine-protein kinase Fgr (Homo sapiens) (UniProt P09769); assay: Binding affinity to wild-type human partial length FGR (L233 to T529 residues) expressed in bacterial expression system assessed as residual binding level at 10 uM by Kinomescan method relative to control
[8] = target: Rhodopsin kinase GRK1 (Homo sapiens) (UniProt Q15835); assay: Binding affinity to wild-type human full length GRK1 (M1 to S563 residues) expressed in mammalian expression system assessed as residual binding level at 10 uM by Kinomescan method relative to control
[9] = target: Interleukin-1 receptor-associated kinase 3 (Homo sapiens) (UniProt Q9Y616); assay: Binding affinity to wild-type human partial length IRAK3 (V147 to E596 residues) expressed in bacterial expression system assessed as residual binding level at 10 uM by Kinomescan method relative to control
[10] = target: Mitogen-activated protein kinase 9 (Homo sapiens) (UniProt P45984); assay: Binding affinity to wild-type human full length JNK2 (M1 to Q382 residues) expressed in mammalian expression system assessed as residual binding level at 10 uM by Kinomescan method relative to control
[11] = tested on: Mast/stem cell growth factor receptor Kit (Homo sapiens), P10721 [V559D]; assay: Binding affinity to human partial length KIT V559D mutant (Y545 to D952 residues) expressed in bacterial expression system assessed as residual binding level at 10 uM by Kinomescan method relative to control
[12] = tested on: Mast/stem cell growth factor receptor Kit (Homo sapiens), P10721 [V559D,T670I]; assay: Binding affinity to human partial length KIT V559D/T670I double mutant (Y545 to D952 residues) expressed in bacterial expression system assessed as residual binding level at 10 uM by Kinomescan method relative to control
[13] = target: Dual specificity mitogen-activated protein kinase kinase 4 (Homo sapiens) (UniProt P45985); assay: Binding affinity to wild-type human partial length MEK4 (S84 to D399 residues) expressed in mammalian expression system assessed as residual binding level at 10 uM by Kinomescan method relative to control
[14] = target: Serine/threonine-protein kinase 26 (Homo sapiens) (UniProt Q9P289); assay: Binding affinity to wild-type human full length MST4 (M1 to P416 residues) expressed in mammalian expression system assessed as residual binding level at 10 uM by Kinomescan method relative to control
[15] = target: Muscle, skeletal receptor tyrosine-protein kinase (Homo sapiens) (UniProt O15146); assay: Binding affinity to wild-type human partial length MUSK (M553 to V869 residues) expressed in bacterial expression system assessed as residual binding level at 10 uM by Kinomescan method relative to control
[16] = target: Serine/threonine-protein kinase 38 (Homo sapiens) (UniProt Q15208); assay: Binding affinity to wild-type human partial length NDR1 (N33 to E449 residues) expressed in mammalian expression system assessed as residual binding level at 10 uM by Kinomescan method relative to control
[17] = target: Serine/threonine-protein kinase 38-like (Homo sapiens) (UniProt Q9Y2H1); assay: Binding affinity to wild-type human partial length NDR2 (N34 to E447 residues) expressed in bacterial expression system assessed as residual binding level at 10 uM by Kinomescan method relative to control
[18] = target: Serine/threonine-protein kinase Nek7 (Homo sapiens) (UniProt Q8TDX7); assay: Binding affinity to wild-type human full length NEK7 (M1 to S302 residues) expressed in bacterial expression system assessed as residual binding level at 10 uM by Kinomescan method relative to control
[19] = target: Mitogen-activated protein kinase 12 (Homo sapiens) (UniProt P53778); assay: Binding affinity to wild-type human full length p38-gamma (M1 to L367 residues) expressed in mammalian expression system assessed as residual binding level at 10 uM by Kinomescan method relative to control
[20] = target: Serine/threonine-protein kinase PAK 1 (Homo sapiens) (UniProt Q13153); assay: Binding affinity to wild-type human partial length PAK1 (S149 to H545 residues) expressed in bacterial expression system assessed as residual binding level at 10 uM by Kinomescan method relative to control
[21] = target: Ribosomal protein S6 kinase alpha-3 (Homo sapiens) (UniProt P51812); assay: Binding affinity to wild-type human partial length N-terminal RSK2 kinase domain 1 (M1 to D394 residues) expressed in mammalian expression system assessed as residual binding level at 10 uM by Kinomescan method relative to control
[22] = target: Serine/threonine-protein kinase SIK2 (Homo sapiens) (UniProt Q9H0K1); assay: Binding affinity to wild-type human full length SIK2 (M1 to N926 residues) expressed in bacterial expression system assessed as residual binding level at 10 uM by Kinomescan method relative to control
[23] = target: SRSF protein kinase 2 (Homo sapiens) (UniProt P78362); assay: Binding affinity to wild-type human full length SRPK2 (M1 to S686 residues) expressed in bacterial expression system assessed as residual binding level at 10 uM by Kinomescan method relative to control
[24] = target: Serine/threonine-protein kinase 36 (Homo sapiens) (UniProt Q9NRP7); assay: Binding affinity to wild-type human partial length STK36 (M1 to T271 residues) expressed in bacterial expression system assessed as residual binding level at 10 uM by Kinomescan method relative to control
MDR1 = assay: in vitro; settings: dog, MDCK-MDR1
Description: Efflux ratio of apparent permeability from basolateral to apical over apical to basolateral side in MDCK2-MDR1 cells by HPLC analysis

Sequence of Casein kinase I isoform gamma-3 (Homo sapiens) (Q9Y6M4 whole entry, looked up, the tested form may be a part, canonical isoform): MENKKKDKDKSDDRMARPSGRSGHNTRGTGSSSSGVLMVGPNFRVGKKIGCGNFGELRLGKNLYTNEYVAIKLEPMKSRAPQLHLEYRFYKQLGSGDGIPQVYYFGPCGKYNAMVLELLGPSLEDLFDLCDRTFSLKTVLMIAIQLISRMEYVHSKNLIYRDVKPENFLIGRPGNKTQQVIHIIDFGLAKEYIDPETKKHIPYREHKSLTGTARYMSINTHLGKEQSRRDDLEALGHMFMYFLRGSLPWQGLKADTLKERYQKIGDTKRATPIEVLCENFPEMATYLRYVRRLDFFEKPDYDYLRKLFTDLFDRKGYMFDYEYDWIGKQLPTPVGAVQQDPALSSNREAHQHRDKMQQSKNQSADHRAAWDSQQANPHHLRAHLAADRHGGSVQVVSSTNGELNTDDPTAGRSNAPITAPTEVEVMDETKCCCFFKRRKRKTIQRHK
Sequence of Serine/threonine-protein kinase Nek7 (Homo sapiens) (Q8TDX7 whole entry, looked up, the tested form may be a part): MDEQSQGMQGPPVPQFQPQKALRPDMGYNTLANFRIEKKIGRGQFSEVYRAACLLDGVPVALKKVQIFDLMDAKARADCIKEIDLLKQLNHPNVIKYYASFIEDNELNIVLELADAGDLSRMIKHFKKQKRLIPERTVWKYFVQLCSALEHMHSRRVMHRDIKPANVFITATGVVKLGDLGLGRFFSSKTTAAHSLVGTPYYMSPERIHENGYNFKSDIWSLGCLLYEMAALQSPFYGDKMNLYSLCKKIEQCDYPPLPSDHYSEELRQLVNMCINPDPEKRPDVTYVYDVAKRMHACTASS
Sequence of Rhodopsin kinase GRK1 (Homo sapiens) (Q15835 whole entry, the tested form may be a part): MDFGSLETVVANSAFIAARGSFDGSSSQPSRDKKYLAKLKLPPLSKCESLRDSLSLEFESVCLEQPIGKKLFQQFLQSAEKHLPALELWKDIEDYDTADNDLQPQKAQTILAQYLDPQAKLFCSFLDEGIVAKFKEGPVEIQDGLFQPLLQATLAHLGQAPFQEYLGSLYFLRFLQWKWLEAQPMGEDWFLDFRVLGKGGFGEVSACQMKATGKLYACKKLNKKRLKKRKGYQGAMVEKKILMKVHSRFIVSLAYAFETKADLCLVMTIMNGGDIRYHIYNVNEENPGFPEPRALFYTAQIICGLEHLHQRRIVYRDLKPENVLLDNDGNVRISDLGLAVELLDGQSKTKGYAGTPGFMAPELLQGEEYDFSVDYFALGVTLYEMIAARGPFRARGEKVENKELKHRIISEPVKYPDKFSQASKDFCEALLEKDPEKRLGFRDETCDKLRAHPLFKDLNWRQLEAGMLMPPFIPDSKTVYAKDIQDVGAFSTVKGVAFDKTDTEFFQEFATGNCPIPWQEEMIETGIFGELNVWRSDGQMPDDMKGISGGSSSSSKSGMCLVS
Sequence of Ephrin type-A receptor 1 (Homo sapiens) (P21709 whole entry, the tested form may be a part): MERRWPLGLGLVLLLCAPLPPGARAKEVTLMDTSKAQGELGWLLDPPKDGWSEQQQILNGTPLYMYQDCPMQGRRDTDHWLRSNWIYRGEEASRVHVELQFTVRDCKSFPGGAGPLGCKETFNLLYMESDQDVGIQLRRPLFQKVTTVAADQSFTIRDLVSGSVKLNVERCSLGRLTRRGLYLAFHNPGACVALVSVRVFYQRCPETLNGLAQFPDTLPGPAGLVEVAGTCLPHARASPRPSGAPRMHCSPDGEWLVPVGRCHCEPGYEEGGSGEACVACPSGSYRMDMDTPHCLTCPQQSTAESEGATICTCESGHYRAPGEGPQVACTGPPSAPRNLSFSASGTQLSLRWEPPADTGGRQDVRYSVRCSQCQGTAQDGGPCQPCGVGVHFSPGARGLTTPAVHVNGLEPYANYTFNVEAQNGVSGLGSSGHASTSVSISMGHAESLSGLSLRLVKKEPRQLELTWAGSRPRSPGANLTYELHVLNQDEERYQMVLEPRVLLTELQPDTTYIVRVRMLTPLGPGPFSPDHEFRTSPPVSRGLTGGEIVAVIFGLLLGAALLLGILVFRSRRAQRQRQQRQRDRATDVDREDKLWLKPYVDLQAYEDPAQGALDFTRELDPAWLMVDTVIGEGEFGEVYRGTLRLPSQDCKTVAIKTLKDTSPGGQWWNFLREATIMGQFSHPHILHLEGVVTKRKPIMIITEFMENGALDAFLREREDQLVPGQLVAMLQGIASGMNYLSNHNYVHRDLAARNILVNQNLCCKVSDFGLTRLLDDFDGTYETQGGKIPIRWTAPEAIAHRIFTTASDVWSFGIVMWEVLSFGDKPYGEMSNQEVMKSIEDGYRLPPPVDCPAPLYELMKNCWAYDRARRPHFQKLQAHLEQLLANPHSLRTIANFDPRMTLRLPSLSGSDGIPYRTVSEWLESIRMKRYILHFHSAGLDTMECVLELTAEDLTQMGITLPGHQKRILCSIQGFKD
Sequence of Serine/threonine-protein kinase PAK 1 (Homo sapiens) (Q13153 whole entry, the tested form may be a part): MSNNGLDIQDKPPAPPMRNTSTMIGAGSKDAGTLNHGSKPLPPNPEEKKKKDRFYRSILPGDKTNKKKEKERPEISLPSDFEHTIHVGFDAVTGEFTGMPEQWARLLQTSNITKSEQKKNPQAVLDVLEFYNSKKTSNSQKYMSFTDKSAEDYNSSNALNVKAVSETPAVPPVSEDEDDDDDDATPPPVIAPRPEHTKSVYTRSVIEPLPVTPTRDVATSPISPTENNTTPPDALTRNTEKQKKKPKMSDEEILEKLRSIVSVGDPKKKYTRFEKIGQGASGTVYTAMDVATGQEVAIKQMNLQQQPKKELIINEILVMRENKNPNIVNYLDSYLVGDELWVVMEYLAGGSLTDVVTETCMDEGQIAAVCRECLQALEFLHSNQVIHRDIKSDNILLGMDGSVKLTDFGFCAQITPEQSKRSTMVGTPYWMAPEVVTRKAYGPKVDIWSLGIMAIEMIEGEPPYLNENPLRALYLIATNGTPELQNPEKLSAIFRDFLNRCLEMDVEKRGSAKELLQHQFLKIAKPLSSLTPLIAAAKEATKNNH
Sequence of Mast/stem cell growth factor receptor Kit (Homo sapiens), P10721 [V559D] (P10721 whole entry V559D, the tested form may be a part): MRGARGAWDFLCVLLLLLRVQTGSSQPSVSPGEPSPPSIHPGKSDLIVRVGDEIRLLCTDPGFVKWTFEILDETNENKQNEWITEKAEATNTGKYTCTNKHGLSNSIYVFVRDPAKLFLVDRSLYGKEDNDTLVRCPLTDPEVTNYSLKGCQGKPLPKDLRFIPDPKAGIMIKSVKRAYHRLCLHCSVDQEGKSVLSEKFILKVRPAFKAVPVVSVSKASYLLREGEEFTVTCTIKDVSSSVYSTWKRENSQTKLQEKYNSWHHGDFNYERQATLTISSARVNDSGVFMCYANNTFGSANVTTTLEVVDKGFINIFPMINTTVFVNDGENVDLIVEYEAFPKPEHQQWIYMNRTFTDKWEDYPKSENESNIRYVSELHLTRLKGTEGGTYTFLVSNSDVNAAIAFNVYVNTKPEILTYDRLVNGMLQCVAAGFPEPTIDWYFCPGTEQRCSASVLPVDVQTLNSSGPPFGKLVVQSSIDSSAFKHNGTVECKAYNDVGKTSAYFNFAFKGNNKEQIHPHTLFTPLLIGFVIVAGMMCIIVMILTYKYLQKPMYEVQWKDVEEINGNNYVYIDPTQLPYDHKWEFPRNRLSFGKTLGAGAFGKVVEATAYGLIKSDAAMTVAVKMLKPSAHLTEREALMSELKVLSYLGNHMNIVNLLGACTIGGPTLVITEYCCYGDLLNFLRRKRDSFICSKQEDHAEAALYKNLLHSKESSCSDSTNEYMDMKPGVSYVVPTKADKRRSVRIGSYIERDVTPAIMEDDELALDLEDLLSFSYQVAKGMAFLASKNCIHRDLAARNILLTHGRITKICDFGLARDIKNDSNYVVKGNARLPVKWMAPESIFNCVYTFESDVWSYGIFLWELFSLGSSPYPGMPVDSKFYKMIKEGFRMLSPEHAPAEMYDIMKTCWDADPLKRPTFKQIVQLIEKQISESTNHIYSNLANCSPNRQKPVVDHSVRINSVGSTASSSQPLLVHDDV
Sequence of Dual specificity mitogen-activated protein kinase kinase 4 (Homo sapiens) (P45985 whole entry, the tested form may be a part): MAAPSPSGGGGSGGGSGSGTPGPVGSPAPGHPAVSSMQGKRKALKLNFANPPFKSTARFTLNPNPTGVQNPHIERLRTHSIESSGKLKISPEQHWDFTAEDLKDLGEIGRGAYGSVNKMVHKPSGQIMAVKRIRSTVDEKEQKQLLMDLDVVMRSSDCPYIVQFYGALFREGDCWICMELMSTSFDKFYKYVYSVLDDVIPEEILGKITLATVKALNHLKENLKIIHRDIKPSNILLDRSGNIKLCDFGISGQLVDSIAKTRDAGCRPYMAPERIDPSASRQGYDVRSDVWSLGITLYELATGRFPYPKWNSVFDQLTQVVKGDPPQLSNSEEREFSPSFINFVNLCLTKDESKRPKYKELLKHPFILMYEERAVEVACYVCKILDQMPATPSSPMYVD
Sequence of Ribosomal protein S6 kinase alpha-3 (Homo sapiens) (P51812 whole entry, the tested form may be a part): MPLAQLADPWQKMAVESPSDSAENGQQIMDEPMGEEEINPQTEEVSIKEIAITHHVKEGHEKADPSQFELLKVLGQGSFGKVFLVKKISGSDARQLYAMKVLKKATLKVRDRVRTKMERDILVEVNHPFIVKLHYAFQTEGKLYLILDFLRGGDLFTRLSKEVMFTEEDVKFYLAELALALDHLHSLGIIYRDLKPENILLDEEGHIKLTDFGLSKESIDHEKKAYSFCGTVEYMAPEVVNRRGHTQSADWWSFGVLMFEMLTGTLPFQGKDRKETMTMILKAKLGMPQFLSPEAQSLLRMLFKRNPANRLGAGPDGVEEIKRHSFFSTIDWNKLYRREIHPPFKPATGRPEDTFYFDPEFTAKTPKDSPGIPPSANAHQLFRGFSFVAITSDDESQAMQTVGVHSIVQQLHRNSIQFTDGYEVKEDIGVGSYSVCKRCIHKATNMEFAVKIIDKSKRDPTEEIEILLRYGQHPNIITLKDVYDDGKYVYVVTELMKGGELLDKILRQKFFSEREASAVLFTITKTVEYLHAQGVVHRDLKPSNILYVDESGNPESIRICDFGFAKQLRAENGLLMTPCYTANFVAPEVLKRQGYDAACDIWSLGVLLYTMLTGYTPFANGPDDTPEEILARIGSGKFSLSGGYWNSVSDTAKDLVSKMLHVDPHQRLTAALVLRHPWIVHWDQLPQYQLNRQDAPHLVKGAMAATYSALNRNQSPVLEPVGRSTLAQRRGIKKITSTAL

O=C(Nc1cc(-c2cn(CCNc3c4c(nc5ccccc35)CCCC4)nn2)ccn1)Nc1cccc2c1C1CCCCN1C2=O (racemic) was tested. Which Activity [1] did it give?
Its Activity is 87%.

What about the Activity [2] of the same compound?
The Activity was 44%.

What about the Activity [3] of the same compound?
Its Activity is 0.95%.

What about the Activity [4] of the same compound?
Its Activity is 80%.

And the Activity [5]?
Its Activity is 78%.

What about the Activity [6] of the same compound?
Its Activity is 60%.

And the Activity [7]?
Its Activity is 97%.

What about the Activity [8] of the same compound?
The Activity was 40%.

What about the Activity [9] of the same compound?
The Activity was 16%.

And the Activity [10]?
Its Activity is 2.6%.

What about the Activity [11] of the same compound?
The Activity was 0.05%.

And the Activity [12]?
Its Activity is 3.4%.

And the Activity [13]?
Its Activity is 100%.

And the Activity [14]?
The Activity was 62%.

What about the Activity [15] of the same compound?
The Activity was 49%.

And the Activity [16]?
The Activity was 100%.

What about the Activity [17] of the same compound?
The Activity was 99%.

And the Activity [18]?
The Activity was 27%.

What about the Activity [19] of the same compound?
Its Activity is 5.7%.

What about the Activity [20] of the same compound?
Its Activity is 88%.

And the Activity [21]?
Its Activity is 1.7%.

And the Activity [22]?
Its Activity is 36%.

What about the Activity [23] of the same compound?
The Activity was 35%.

What about the Activity [24] of the same compound?
Its Activity is 9.1%.

And the efflux ratio (MDR1)?
The efflux ratio was 1.51.
